Measured values reported in PubChem BioAssay (NCI).
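In this assay, cells in 96-well plates receive the compound at five concentrations for 48 hours. Endpoints are linearly interpolated between the surrounding concentrations. GI50 = concentration required for 50% inhibition of growth. TGI marks complete inhibition of growth.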

What was measured:
Experiment in all cases: inhibition of tumour cell growth, NCI panel, 48 h
[1] = tested on: RPMI-8226 leukemia
[2] = tested on: ACHN renal
[3] = tested on: BT-549 breast
[4] = tested on: T-47D breast
[5] = tested on: NCI/ADR-RES ovarian
[6] = tested on: OVCAR-4 ovarian
[7] = tested on: LOX IMVI melanoma
[8] = tested on: IGROV1 ovarian
[9] = tested on: A498 renal
[10] = tested on: OVCAR-5 ovarian
[11] = tested on: OVCAR-3 ovarian
[12] = tested on: MDA-MB-435
[13] = tested on: OVCAR-8 ovarian
[14] = tested on: UO-31 renal
[15] = tested on: HOP-92 NSCLC
[16] = tested on: CAKI-1 renal
[17] = tested on: NCI-H226 lung
[18] = tested on: A549 NSCLC
[19] = tested on: HT29 colon
[20] = tested on: SF-295 CNS
[21] = tested on: SK-OV-3 ovarian
[22] = tested on: SK-MEL-28 melanoma
[23] = tested on: MDA-MB-231 breast
[24] = tested on: SNB-19 CNS
[25] = tested on: UACC-257 melanoma
[26] = tested on: 786-0 renal
[27] = tested on: HCC-2998 colon
[28] = tested on: SF-539 CNS
[29] = tested on: NCI-H522 lung
[30] = tested on: HCT-15 colon
[31] = tested on: SK-MEL-5 melanoma
[32] = tested on: M14 melanoma
[33] = tested on: KM12 colon
[34] = tested on: SK-MEL-2 melanoma
[35] = tested on: NCI-H23 lung
[36] = tested on: RXF 393 renal
[37] = tested on: EKVX NSCLC
[38] = tested on: UACC-62 melanoma
[39] = tested on: SW-620 colon
[40] = tested on: SNB-75 CNS
[41] = tested on: DU-145 prostate
[42] = tested on: PC-3 prostate
[43] = tested on: COLO 205 colon
[44] = tested on: NCI-H460 lung
[45] = tested on: SN12C renal
[46] = tested on: MALME-3M melanoma
[47] = tested on: U251 CNS
[48] = tested on: HOP-62 NSCLC
[49] = tested on: TK-10 renal
[50] = tested on: SF-268 CNS
[51] = tested on: HS 578T breast
[52] = tested on: MCF7 breast
[53] = tested on: HCT-116 colon
[54] = tested on: HL-60(TB) leukemia
[55] = tested on: CCRF-CEM leukemia

SMILES: Cc1cc2cccnc2c2ncccc12
- GI50 [1]: 2430 nM
- TGI [1]: 9070 nM
- GI50 [2]: 460 nM
- TGI [2]: 7510 nM
- GI50 [3]: 2670 nM
- TGI [3]: 41900 nM
- GI50 [4]: 3320 nM
- TGI [4]: 21300 nM
- GI50 [5]: 315 nM
- TGI [5]: 1840 nM
- GI50 [6]: 418 nM
- TGI [6]: 14800 nM
- GI50 [7]: 674 nM
- TGI [7]: 8600 nM
- GI50 [8]: 1180 nM
- TGI [8]: 6440 nM
- GI50 [9]: 1590 nM
- TGI [9]: 7300 nM
- GI50 [10]: 1350 nM
- TGI [10]: 42100 nM
- GI50 [11]: 1750 nM
- TGI [11]: 10300 nM
- GI50 [12]: 2150 nM
- TGI [12]: 21900 nM
- GI50 [13]: 626 nM
- TGI [13]: 11900 nM
- GI50 [14]: 411 nM
- TGI [14]: 4150 nM
- GI50 [15]: 2380 nM
- TGI [15]: 17200 nM
- GI50 [16]: 244 nM
- TGI [16]: 758 nM
- GI50 [17]: 1330 nM
- TGI [17]: 8810 nM
- GI50 [18]: 949 nM
- TGI [18]: 10600 nM
- GI50 [19]: 1690 nM
- TGI [19]: 16000 nM
- GI50 [20]: 555 nM
- TGI [20]: 4570 nM
- GI50 [21]: 756 nM
- TGI [21]: 8420 nM
- GI50 [22]: 2560 nM
- TGI [22]: > 100000 nM
- GI50 [23]: 740 nM
- TGI [23]: > 100000 nM
- GI50 [24]: 2270 nM
- TGI [24]: > 100000 nM
- GI50 [25]: 2140 nM
- TGI [25]: 6940 nM
- GI50 [26]: 770 nM
- TGI [26]: 5970 nM
- GI50 [27]: 2750 nM
- TGI [27]: 68200 nM
- GI50 [28]: 1830 nM
- TGI [28]: 10800 nM
- GI50 [29]: 3520 nM
- TGI [29]: 17900 nM
- GI50 [30]: 436 nM
- TGI [30]: 21300 nM
- GI50 [31]: 1300 nM
- TGI [31]: 10700 nM
- GI50 [32]: 1260 nM
- TGI [32]: 5320 nM
- GI50 [33]: 780 nM
- TGI [33]: 18400 nM
- GI50 [34]: 2380 nM
- TGI [34]: 31900 nM
- GI50 [35]: 3110 nM
- TGI [35]: 87600 nM
- GI50 [36]: 1890 nM
- TGI [36]: 6770 nM
- GI50 [37]: 665 nM
- TGI [37]: 16000 nM
- GI50 [38]: 1280 nM
- TGI [38]: 9190 nM
- GI50 [39]: 2340 nM
- TGI [39]: 27900 nM
- GI50 [40]: 3240 nM
- TGI [40]: > 100000 nM
- GI50 [41]: 1020 nM
- TGI [41]: > 100000 nM
- GI50 [42]: 1570 nM
- TGI [42]: 34400 nM
- GI50 [43]: 3400 nM
- TGI [43]: 11500 nM
- GI50 [44]: 508 nM
- TGI [44]: 2540 nM
- GI50 [45]: 1180 nM
- TGI [45]: > 100000 nM
- GI50 [46]: 2170 nM
- TGI [46]: 7210 nM
- GI50 [47]: 703 nM
- TGI [47]: 12100 nM
- GI50 [48]: 1450 nM
- TGI [48]: > 100000 nM
- GI50 [49]: 713 nM
- TGI [49]: 23900 nM
- GI50 [50]: 739 nM
- TGI [50]: 27700 nM
- GI50 [51]: 4040 nM
- TGI [51]: 47900 nM
- GI50 [52]: 2620 nM
- TGI [52]: > 100000 nM
- GI50 [53]: 1140 nM
- TGI [53]: 7060 nM

SMILES: CCCCN(CCCC)c1ccc(C(=N)c2ccc(N(C)C)cc2)cc1
- GI50 [1]: 224 nM
- TGI [1]: 737 nM
- GI50 [2]: 1040 nM
- TGI [2]: 2380 nM
- GI50 [3]: 1290 nM
- TGI [3]: 2640 nM
- GI50 [4]: 322 nM
- TGI [4]: 1510 nM
- GI50 [5]: 335 nM
- TGI [5]: 1270 nM
- GI50 [6]: 375 nM
- TGI [6]: 1460 nM
- GI50 [54]: 336 nM
- TGI [54]: 1160 nM
- GI50 [7]: 536 nM
- TGI [7]: 2020 nM
- GI50 [8]: 906 nM
- TGI [8]: 2440 nM
- GI50 [9]: 178 nM
- TGI [9]: 1800 nM
- GI50 [10]: 1310 nM
- TGI [10]: 2860 nM
- GI50 [11]: 448 nM
- TGI [11]: 1600 nM
- GI50 [12]: 348 nM
- TGI [12]: 1330 nM
- GI50 [13]: 591 nM
- TGI [13]: 1780 nM
- GI50 [14]: 91.9 nM
- TGI [14]: 1280 nM
- GI50 [15]: 362 nM
- TGI [15]: 1780 nM
- GI50 [16]: 356 nM
- TGI [16]: 1490 nM
- GI50 [17]: 1200 nM
- TGI [17]: 2630 nM
- GI50 [18]: 700 nM
- TGI [18]: 1970 nM
- GI50 [19]: 292 nM
- TGI [19]: 1080 nM
- GI50 [20]: 349 nM
- TGI [20]: 1340 nM
- GI50 [21]: 1360 nM
- TGI [21]: 2660 nM
- GI50 [22]: 1310 nM
- TGI [22]: 2600 nM
- GI50 [23]: 1320 nM
- TGI [23]: 2880 nM
- GI50 [24]: 951 nM
- TGI [24]: 2370 nM
- GI50 [25]: 562 nM
- TGI [25]: 1350 nM
- GI50 [26]: 1100 nM
- TGI [26]: 2550 nM
- GI50 [27]: 429 nM
- TGI [27]: 1620 nM
- GI50 [28]: 1530 nM
- TGI [28]: 3160 nM
- GI50 [30]: 665 nM
- TGI [30]: 2200 nM
- GI50 [31]: 505 nM
- TGI [31]: 1700 nM
- GI50 [32]: 908 nM
- TGI [32]: 2250 nM
- GI50 [33]: 516 nM
- TGI [33]: 1750 nM
- GI50 [34]: 829 nM
- TGI [34]: 2240 nM
- GI50 [35]: 278 nM
- TGI [35]: 981 nM
- GI50 [36]: 1250 nM
- TGI [36]: 2610 nM
- GI50 [37]: 334 nM
- TGI [37]: 1450 nM
- GI50 [38]: 449 nM
- TGI [38]: 1770 nM
- GI50 [39]: 438 nM
- TGI [39]: 1780 nM
- GI50 [40]: 1140 nM
- TGI [40]: 2420 nM
- GI50 [41]: 1030 nM
- TGI [41]: 2230 nM
- GI50 [42]: 409 nM
- TGI [42]: 1670 nM
- GI50 [43]: 455 nM
- TGI [43]: 1650 nM
- GI50 [44]: 788 nM
- TGI [44]: 2320 nM
- GI50 [45]: 1190 nM
- TGI [45]: 2770 nM
- GI50 [46]: 651 nM
- TGI [46]: 2230 nM
- GI50 [55]: 544 nM
- TGI [55]: 3240 nM
- GI50 [47]: 460 nM
- TGI [47]: 1420 nM
- GI50 [48]: 1330 nM
- TGI [48]: 2690 nM
- GI50 [49]: 643 nM
- TGI [49]: 1840 nM
- GI50 [50]: 1300 nM
- TGI [50]: 2730 nM
- GI50 [51]: 1180 nM
- TGI [51]: 3280 nM
- GI50 [52]: 377 nM
- TGI [52]: 1510 nM
- GI50 [53]: 307 nM
- TGI [53]: 1220 nM
